Patent US8415469B2, “Compounds and methods for kinase modulation, and indications therefor” (Plexxikon Inc., priority 2005, dated 2013)
pIC50: −log10 of the molar value.

Columns and labels:
Assay type in all cases: biochemical
[1] = molecular target: T1, B-Raf (Homo sapiens, UniProt P15056); assay: AlphaScreen kinase assay, B-Raf; details: read-out: IC50, activity toward kinase B-Raf
T1 construct: purchased Upstate Biotechnology

[2] = molecular target: T2, Jnk3 (Homo sapiens, UniProt P53779); assay: AlphaScreen kinase assay, Jnk3; details: read-out: IC50, activity toward kinase Jnk3
T2 construct: purchased Upstate Biotechnology

[3] = molecular target: T3, Jnk1 (Homo sapiens, UniProt P45983); assay: AlphaScreen kinase assay, Jnk1; details: read-out: IC50, activity toward kinase Jnk1
T3 construct: purchased Upstate Biotechnology

[4] = molecular target: T4, Jnk2 (Homo sapiens, UniProt P45984); assay: AlphaScreen kinase assay, Jnk2; details: read-out: IC50, activity toward kinase Jnk2
T4 construct: purchased Roche Protein Expression Group (Indianapolis, IN)
Text: AlphaScreen assay was used to screen additional kinases. The assay is similarly dependent on the phosphorylation of a peptide substrate. In this assay, an antibody that recognizes phosphorylated substrate is bound to an acceptor bead. The peptide substrate is attached to biotin, which binds to a donor head that contains streptavidin. Thus phosphorylated substrate is bound by antibody and streptavidin, bringing the donor and acceptor heads into close proximity when kinase is not inhibited. The donor produces singlet oxygen which results in emission from the acceptor when they are in close proximity. Conversely, when kinase is inhibited, the donor and acceptor beads are not associated and the emission from the acceptor is reduced.
AlphaScreen assays were done using compounds dissolved in DMSO to a concentration of 20 mM. The compounds were diluted accordingly to the desired final concentrations in each sample well, using 1:3 serial dilution for a total of 8 concentration points.

[5] = molecular target: T5, Fms (Homo sapiens, UniProt P07333); assay: AlphaScreen kinase assay, Fms; details: read-out: IC50, activity toward kinase Fms
T5 construct: purchased Upstate Biotechnology

[6] = molecular target: T6, B-Raf V600E (Homo sapiens, UniProt P15056, V600E); assay: AlphaScreen kinase assay, B-Raf V600E; details: read-out: IC50, activity toward kinase B-Raf V600E
T6 construct: P4254. pFastBacBD-CDC37 BRAF D437-K722-X, V600E; His6 with pFastBac HT leader (TEV site) (N); made in house; host or cells: Sf9 (baculovirus; chaperone CDC37 co-expressed)

[7] = molecular target: T7, c-Raf-1 (Homo sapiens, UniProt P04049); assay: AlphaScreen kinase assay, c-Raf-1; details: read-out: IC50, activity toward kinase c-Raf-1
T7 construct: purchased Upstate Biotechnology

[8] = molecular target: T8, FGFR1 (Homo sapiens, UniProt P11362, C488A/C584S); assay: AlphaScreen kinase assay, FGFR1; details: read-out: IC50, activity toward kinase FGFR
T8 construct: P1351.pET N6 BI-PTP FGFR A458-E765-X C488A, C584S; made in house; host or cells: E. coli (PTP1B co-expressed)

[9] = molecular target: T9, Ret (Homo sapiens, UniProt P07949); assay: AlphaScreen kinase assay, Ret; details: read-out: IC50, activity toward kinase Ret
T9 construct: P1378.pET-SF BI-PTP RET H661-R1012 HIS; made in house
T9 sequence (P07949 with tags, fused parts or gaps): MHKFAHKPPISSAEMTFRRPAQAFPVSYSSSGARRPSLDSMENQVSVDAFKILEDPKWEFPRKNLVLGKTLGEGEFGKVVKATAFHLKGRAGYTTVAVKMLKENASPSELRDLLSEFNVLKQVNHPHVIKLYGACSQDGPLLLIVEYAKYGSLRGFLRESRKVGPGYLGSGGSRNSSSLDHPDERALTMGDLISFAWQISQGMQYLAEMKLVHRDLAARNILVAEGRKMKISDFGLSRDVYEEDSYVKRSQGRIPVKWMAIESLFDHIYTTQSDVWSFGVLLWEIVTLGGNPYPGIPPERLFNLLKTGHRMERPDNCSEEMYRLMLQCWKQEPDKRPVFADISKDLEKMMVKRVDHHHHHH

[10] = molecular target: T10, Kit (Homo sapiens, UniProt P10721); assay: AlphaScreen kinase assay, Kit; details: read-out: IC50, activity toward kinase Kit
T10 construct: P1332.N6 BI PTP KIT M552-K948-X COD; His6 (N); made in house; host or cells: E. coli (PTP1B co-expressed)

[11] = molecular target: T11, Flt1 (Homo sapiens, UniProt P17948); assay: AlphaScreen kinase assay, Flt1; details: read-out: IC50, activity toward kinase Flt1
T11 construct: P1826.pETN6 BI-PTP FLT1 M799-D1165-X WT; His6 (N); made in house; host or cells: E. coli (PTP1B co-expressed)
T11 sequence (P17948 with tags, fused parts or gaps): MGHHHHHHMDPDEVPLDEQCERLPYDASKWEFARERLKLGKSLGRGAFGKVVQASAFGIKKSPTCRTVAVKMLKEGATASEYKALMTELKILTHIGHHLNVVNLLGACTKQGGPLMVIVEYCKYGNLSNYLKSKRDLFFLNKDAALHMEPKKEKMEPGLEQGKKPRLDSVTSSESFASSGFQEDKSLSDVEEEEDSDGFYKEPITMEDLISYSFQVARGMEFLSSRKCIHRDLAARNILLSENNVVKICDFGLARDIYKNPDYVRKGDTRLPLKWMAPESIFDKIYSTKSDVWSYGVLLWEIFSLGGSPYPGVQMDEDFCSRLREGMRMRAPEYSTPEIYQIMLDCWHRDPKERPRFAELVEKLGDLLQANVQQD

T4 sequence (P45984 whole entry): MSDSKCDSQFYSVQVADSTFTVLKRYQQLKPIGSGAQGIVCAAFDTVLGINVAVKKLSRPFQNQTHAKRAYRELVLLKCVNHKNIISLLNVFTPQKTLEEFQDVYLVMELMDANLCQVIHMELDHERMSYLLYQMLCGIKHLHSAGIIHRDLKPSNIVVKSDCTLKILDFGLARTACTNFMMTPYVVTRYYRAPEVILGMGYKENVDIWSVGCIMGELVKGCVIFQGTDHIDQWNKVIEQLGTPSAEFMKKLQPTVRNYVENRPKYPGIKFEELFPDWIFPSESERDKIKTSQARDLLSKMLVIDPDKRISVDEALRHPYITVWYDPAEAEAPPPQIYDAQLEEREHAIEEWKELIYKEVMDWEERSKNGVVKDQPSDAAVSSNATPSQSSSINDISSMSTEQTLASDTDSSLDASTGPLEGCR
T2 sequence (P53779 whole entry): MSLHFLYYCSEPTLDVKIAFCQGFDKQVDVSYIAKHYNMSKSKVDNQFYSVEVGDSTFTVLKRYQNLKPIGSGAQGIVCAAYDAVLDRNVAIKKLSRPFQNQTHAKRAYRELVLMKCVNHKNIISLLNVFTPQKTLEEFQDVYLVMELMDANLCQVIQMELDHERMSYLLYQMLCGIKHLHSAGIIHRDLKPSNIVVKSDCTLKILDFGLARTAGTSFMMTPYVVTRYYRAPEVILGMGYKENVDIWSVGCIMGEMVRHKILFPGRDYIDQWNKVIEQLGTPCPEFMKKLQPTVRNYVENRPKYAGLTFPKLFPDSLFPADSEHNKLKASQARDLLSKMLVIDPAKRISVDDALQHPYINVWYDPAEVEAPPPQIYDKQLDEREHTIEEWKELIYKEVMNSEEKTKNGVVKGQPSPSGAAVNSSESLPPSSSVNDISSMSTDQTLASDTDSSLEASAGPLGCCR
T6 sequence (P15056 with tags, fused parts or gaps V600E): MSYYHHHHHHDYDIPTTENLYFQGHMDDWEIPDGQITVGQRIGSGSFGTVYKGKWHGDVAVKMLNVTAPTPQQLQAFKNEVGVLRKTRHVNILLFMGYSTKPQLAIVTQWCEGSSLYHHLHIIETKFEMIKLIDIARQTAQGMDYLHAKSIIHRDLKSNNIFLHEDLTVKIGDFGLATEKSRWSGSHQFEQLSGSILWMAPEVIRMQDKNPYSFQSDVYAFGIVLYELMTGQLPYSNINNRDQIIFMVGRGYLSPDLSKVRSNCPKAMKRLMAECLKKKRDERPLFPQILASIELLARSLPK
T3 sequence (P45983 whole entry): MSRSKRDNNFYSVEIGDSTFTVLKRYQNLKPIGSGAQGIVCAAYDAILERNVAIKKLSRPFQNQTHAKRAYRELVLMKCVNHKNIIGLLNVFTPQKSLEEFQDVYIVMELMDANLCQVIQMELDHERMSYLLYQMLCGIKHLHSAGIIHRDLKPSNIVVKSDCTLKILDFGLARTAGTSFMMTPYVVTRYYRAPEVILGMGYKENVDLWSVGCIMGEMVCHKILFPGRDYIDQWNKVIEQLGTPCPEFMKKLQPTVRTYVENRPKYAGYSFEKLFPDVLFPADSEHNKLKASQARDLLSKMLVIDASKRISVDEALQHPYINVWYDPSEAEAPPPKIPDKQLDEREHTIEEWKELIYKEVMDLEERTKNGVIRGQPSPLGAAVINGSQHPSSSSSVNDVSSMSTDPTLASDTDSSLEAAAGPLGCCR
T5 sequence (P07333 20-972): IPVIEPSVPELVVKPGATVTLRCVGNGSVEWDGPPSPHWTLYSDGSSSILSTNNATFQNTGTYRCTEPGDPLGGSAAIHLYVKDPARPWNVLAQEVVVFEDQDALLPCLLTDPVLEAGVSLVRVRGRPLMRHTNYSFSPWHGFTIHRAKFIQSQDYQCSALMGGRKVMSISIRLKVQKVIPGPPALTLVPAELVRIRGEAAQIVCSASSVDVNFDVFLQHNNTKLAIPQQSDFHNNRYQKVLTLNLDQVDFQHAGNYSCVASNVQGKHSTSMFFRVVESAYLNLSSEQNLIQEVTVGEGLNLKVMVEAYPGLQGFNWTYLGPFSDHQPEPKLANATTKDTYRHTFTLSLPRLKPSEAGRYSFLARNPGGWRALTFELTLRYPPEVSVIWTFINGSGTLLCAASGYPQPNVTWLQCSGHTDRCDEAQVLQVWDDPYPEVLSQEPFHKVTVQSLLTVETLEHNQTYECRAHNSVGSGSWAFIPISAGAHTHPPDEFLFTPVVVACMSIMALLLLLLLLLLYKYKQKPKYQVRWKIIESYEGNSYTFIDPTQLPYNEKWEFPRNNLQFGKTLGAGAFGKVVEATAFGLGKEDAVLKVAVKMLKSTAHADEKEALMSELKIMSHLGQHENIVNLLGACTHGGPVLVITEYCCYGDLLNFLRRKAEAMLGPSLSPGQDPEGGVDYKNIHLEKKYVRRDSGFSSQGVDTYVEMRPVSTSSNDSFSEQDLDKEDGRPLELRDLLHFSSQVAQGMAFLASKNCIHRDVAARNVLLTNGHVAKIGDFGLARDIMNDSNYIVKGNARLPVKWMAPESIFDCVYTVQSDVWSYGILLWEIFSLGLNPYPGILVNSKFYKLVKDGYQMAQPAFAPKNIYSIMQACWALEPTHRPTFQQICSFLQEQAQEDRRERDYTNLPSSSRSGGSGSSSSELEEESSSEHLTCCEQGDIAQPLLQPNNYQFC
T1 sequence (P15056 whole entry): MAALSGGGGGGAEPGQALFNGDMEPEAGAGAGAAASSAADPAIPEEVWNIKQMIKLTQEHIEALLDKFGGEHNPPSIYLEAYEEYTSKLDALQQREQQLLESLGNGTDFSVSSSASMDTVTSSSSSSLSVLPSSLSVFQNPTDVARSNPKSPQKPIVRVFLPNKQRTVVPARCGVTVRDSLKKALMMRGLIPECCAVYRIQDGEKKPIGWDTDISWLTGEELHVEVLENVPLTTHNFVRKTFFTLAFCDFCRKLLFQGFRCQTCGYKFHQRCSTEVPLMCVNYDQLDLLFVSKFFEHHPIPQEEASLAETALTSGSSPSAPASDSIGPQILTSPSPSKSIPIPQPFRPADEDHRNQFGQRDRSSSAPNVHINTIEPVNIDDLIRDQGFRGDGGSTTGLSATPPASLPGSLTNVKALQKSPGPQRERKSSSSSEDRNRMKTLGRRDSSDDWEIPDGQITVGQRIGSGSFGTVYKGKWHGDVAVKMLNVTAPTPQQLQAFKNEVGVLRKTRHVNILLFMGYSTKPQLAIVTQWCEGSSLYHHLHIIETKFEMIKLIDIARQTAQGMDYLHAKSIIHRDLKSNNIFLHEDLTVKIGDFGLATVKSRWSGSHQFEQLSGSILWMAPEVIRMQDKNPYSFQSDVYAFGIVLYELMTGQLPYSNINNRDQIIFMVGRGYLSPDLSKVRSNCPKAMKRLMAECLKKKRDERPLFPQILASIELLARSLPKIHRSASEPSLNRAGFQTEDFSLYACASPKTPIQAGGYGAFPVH
T8 sequence (P11362 458-765 C488A/C584S): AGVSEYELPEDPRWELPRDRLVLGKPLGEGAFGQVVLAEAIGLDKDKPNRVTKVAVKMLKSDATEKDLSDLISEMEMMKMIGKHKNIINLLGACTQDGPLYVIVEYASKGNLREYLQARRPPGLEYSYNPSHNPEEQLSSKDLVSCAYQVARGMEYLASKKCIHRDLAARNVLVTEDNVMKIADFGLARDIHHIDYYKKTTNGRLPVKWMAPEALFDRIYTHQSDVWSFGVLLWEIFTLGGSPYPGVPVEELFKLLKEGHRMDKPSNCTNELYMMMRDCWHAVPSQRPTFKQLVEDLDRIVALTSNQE
T10 sequence (P10721 with tags, fused parts or gaps): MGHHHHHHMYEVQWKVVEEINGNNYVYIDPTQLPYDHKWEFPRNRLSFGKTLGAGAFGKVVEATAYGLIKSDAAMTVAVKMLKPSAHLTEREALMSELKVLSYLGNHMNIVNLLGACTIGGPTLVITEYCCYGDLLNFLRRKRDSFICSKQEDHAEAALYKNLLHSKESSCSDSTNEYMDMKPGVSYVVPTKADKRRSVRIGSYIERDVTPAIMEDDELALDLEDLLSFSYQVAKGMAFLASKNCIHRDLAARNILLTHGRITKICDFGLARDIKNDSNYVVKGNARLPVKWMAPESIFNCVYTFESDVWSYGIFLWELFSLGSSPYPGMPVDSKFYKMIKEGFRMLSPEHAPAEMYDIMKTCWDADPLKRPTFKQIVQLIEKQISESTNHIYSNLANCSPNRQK
T7 sequence (P04049 whole entry): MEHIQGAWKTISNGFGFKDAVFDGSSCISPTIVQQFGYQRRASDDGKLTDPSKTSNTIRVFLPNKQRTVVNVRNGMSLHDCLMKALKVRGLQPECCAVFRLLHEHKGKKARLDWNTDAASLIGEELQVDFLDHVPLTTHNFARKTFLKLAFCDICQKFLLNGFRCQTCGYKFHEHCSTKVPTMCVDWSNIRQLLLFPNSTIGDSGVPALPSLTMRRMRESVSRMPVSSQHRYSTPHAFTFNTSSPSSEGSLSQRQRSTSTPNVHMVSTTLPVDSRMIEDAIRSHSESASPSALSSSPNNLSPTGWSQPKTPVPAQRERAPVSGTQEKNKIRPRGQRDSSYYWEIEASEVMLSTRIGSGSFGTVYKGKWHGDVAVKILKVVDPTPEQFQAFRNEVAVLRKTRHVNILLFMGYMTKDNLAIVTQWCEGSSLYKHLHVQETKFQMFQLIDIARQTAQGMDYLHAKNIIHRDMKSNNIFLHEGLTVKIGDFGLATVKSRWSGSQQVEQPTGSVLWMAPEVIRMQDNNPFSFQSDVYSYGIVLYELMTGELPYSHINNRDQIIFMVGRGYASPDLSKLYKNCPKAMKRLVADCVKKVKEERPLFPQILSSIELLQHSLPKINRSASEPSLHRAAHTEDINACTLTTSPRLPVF

Row | pIC50 [1] | pIC50 [2] | pIC50 [3] | pIC50 [4] | pIC50 [5] | pIC50 [6] | pIC50 [7] | pIC50 [8] | pIC50 [9] | pIC50 [10] | pIC50 [11] | Structure (SMILES)
1 | ≥ 5.00 | ≥ 5.00 | ≥ 5.00 | ≥ 5.00 | ≥ 5.00 | ≥ 5.00 | – | – | – | – | – | Cc1ccccc1NC(=O)Nc1cccc(C(=O)c2c[nH]c3ncc(-c4cccnc4)cc23)c1 [Compound P-1759, 1-[3-(5-Pyridin-3-yl-1H-pyrrolo[2,3-b]pyridine-3-carbonyl)-phenyl]-3-o-tolyl-urea]
2 | ≥ 5.00 | ≥ 5.00 | ≥ 5.00 | ≥ 5.00 | ≥ 5.00 | – | – | – | – | – | – | CCCCNC(=O)n1ccc2c(C(=O)c3c[nH]c4ncc(-c5ccc(OC)nc5)cc34)cccc21 [Compound P-1827, 4-[5-(6-Methoxy-pyridin-3-yl)-1H-pyrrolo[2,3-b]pyridine-3-carbonyl]-indole-1-carboxylic acid butylamide]
3 | ≥ 5.00 | ≥ 5.00 | ≥ 5.00 | ≥ 5.00 | ≥ 5.00 | ≥ 5.00 | – | – | – | – | – | Cc1cc(NC(=O)Nc2cccc(C(=O)c3c[nH]c4ncccc34)c2)on1 [Compound P-1765, 1-(3-Methyl-isoxazol-5-yl)-3-[3-(1H-pyrrolo[2,3-b]pyridine-3-carbonyl)-phenyl]-urea]
4 | ≥ 5.00 | ≥ 5.00 | ≥ 5.00 | ≥ 5.00 | ≥ 5.00 | ≥ 5.00 | – | – | – | – | – | CCCS(=O)(=O)Nc1ccc(F)c(C(=O)c2c[nH]c3ncc(-c4ccc(C(=O)N(C)C)c(C)c4)cc23)c1F [Compound P-2007]
5 | – | – | ≥ 5.00 | ≥ 5.00 | ≥ 5.00 | ≥ 5.00 | ≥ 5.00 | ≥ 5.00 | ≥ 5.00 | ≥ 5.00 | – | Cc1c(NS(C)(=O)=O)cccc1C(=O)c1c[nH]c2ncc(-c3cccnc3)cc12 [Compound P-0121, N-[2-Methyl-3-(5-pyridin-3-yl-1H-pyrrolo[2,3-b]pyridine-3-carbonyl)-phenyl]-methanesulfonamide]
6 | ≥ 5.00 | ≥ 5.00 | ≥ 5.00 | ≥ 5.00 | ≥ 5.00 | ≥ 5.00 | – | – | – | – | – | O=C(Nc1ccc(Cl)cc1)Nc1cccc(C(=O)c2c[nH]c3ncc(-c4cccnc4)cc23)c1 [Compound P-1750, 1-(4-Chloro-phenyl)-3-[3-(5-pyridin-3-yl-1H-pyrrolo[2,3-b]pyridine-3-carbonyl)-phenyl]-urea]
7 | ≥ 5.00 | ≥ 5.00 | ≥ 5.00 | ≥ 5.00 | ≥ 5.00 | ≥ 5.00 | – | – | – | – | – | O=C(Nc1cccc(C(=O)c2c[nH]c3ncc(-c4cccnc4)cc23)c1)Nc1ccc(F)c(F)c1 [Compound P-1724, 1-(3,4-Difluoro-phenyl)-3-[3-(5-pyridin-3-yl-1H-pyrrolo[2,3-b]pyridine-3-carbonyl)-phenyl]-urea]
8 | ≥ 5.00 | ≥ 5.00 | ≥ 5.00 | ≥ 5.00 | ≥ 5.00 | ≥ 5.00 | – | – | – | – | – | CCCCNC(=O)Nc1cccc(C(=O)c2c[nH]c3ncc(-c4cccnc4)cc23)c1C [Compound P-1742, 1-Butyl-3-[2-methyl-3-(5-pyridin-3-yl-1H-pyrrolo[2,3-b]pyridine-3-carbonyl)-phenyl]-urea]
9 | ≥ 5.00 | ≥ 5.00 | ≥ 5.00 | ≥ 5.00 | ≥ 5.00 | ≥ 5.00 | – | – | – | – | – | COc1cccc(NC(=O)Nc2cccc(C(=O)c3c[nH]c4ncc(-c5cccnc5)cc34)c2)c1 [Compound P-1749, 1-(3-Methoxy-phenyl)-3-[3-(5-pyridin-3-yl-1H-pyrrolo[2,3-b]pyridine-3-carbonyl)-phenyl]-urea]
10 | ≥ 5.00 | – | ≥ 5.00 | ≥ 5.00 | ≥ 5.00 | ≥ 5.00 | – | – | – | – | ≥ 5.00 | CCCCNC(=O)n1ccc2c(C(=O)c3c[nH]c4ncc(-c5ccc(Cl)cc5)cc34)cccc21 [Compound P-1602, 4-[5-(4-Chloro-phenyl)-1H-pyrrolo[2,3-b]pyridine-3-carbonyl]-indole-1-carboxylic acid butylamide]
11 | ≥ 5.00 | ≥ 5.00 | ≥ 5.00 | ≥ 5.00 | ≥ 5.00 | ≥ 5.00 | – | – | – | – | – | CCCN(CCC)C(=O)n1ccc2c(C(=O)c3c[nH]c4ncc(-c5cccnc5)cc34)cccc21 [Compound P-1722, 4-(5-Pyridin-3-yl-1H-pyrrolo[2,3-b]pyridine-3-carbonyl)-indole-1-carboxylic acid dipropylamide]
12 | ≥ 5.00 | ≥ 5.00 | ≥ 5.00 | ≥ 5.00 | ≥ 5.00 | ≥ 5.00 | – | – | – | – | – | O=C(Nc1ccc(F)cc1)Nc1cccc(C(=O)c2c[nH]c3ncc(-c4cccnc4)cc23)c1 [Compound P-1748, 1-(4-Fluoro-phenyl)-3-[3-(5-pyridin-3-yl-1H-pyrrolo[2,3-b]pyridine-3-carbonyl)-phenyl]-urea]
13 | ≥ 5.00 | ≥ 5.00 | ≥ 5.00 | ≥ 5.00 | ≥ 5.00 | ≥ 5.00 | – | – | – | – | – | Cc1cccc(NC(=O)Nc2cccc(C(=O)c3c[nH]c4ncc(-c5cccnc5)cc34)c2)c1 [Compound P-1757, 1-[3-(5-Pyridin-3-yl-1H-pyrrolo[2,3-b]pyridine-3-carbonyl)-phenyl]-3-m-tolyl-urea]
14 | ≥ 5.00 | ≥ 5.00 | ≥ 5.00 | ≥ 5.00 | – | ≥ 5.00 | – | – | – | – | – | O=C(Nc1ccncc1)Nc1cccc(C(=O)c2c[nH]c3ncc(-c4cccnc4)cc23)c1 [Compound P-1777, 1-Pyridin-4-yl-3-[3-(5-pyridin-3-yl-1H-pyrrolo[2,3-b]pyridine-3-carbonyl)-phenyl]-urea]
15 | ≥ 5.00 | ≥ 5.00 | ≥ 5.00 | ≥ 5.00 | ≥ 5.00 | ≥ 5.00 | – | – | – | – | – | CCCCNC(=O)n1ccc2c(C(=O)c3c[nH]c4ncc(Br)cc34)cccc21 [Compound P-1687, 4-(5-Bromo-1H-pyrrolo[2,3-b]pyridine-3-carbonyl)-indole-1-carboxylic acid butylamide]
16 | – | ≥ 5.00 | ≥ 5.00 | ≥ 5.00 | ≥ 5.00 | ≥ 5.00 | – | – | – | – | – | O=C(c1c[nH]c2ncc(-c3ccccc3)cc12)c1cccc2c1ccn2C(=O)NCc1ccccc1 [Compound P-1611, 4-(5-Phenyl-1H-pyrrolo[2,3-b]pyridine-3-carbonyl)-indole-1-carboxylic acid benzylamide]
17 | – | ≥ 5.00 | ≥ 5.00 | ≥ 5.00 | – | – | – | – | – | – | – | Cn1cccc1-c1nc(-c2ccnc3[nH]ccc23)no1 [Compound P-0285]
